Reference: ChEMBL document CHEMBL1155778, “The many roles for fluorine in medicinal chemistry” (J Med Chem, 2008)

What was measured:
[1] = Plasma clearance in rat at 2 mg/kg, po; type: ADME, organism-based; set-up: dose 2 mg/kg, route oral
[2] = Half life in rat plasma at 2 mg/kg, po; type: ADME, organism-based; set-up: dose 2 mg/kg, route oral
[3] = target: Prothrombin (Homo sapiens, UniProt P00734); test: Inhibition of human thrombin
[4] = test system: Meriones unguiculatus; test: Inhibition of GR-73632-induced foot-tapping in iv dosed gerbils after 24 hrs; type: functional; details: read-out: ID50 (the source's name)
[5] = test system: Cavia porcellus; test: Inhibition of resiniferatoxin-induced systemic vascular leakage in po dosed guinea pig […] model after 24 hrs; type: functional
[6] = Dissociation constant, pKa of the compound; type: physicochemical
[7] = target: T1, Cathepsin K (Homo sapiens, UniProt P43235); test: Inhibition of cathepsin K
T1 sequence (P43235 whole entry): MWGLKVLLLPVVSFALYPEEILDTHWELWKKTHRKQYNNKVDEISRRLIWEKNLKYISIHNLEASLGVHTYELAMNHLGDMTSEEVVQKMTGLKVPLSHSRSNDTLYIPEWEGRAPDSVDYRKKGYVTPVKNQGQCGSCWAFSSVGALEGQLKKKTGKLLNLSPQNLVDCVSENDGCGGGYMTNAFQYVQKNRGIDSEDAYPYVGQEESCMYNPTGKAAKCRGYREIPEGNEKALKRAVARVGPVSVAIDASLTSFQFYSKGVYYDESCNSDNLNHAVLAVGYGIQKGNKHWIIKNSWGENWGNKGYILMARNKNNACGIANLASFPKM

[8] = Drug level in duct cannulated rat bile at 5 mg/kg, iv; type: ADME, organism-based; set-up: dose 5 mg/kg, route intravenous; details: in vivo, read-out: Drug uptake
[9] = Metabolic stability in rat hepatocytes after 2 hrs
[10] = Oral bioavailability in rat; type: ADME, organism-based; details: in vivo
[11] = Half life in rat plasma at 10 mg/kg, po; type: ADME, organism-based; set-up: dose 10 mg/kg, route oral
[12] = Plasma clearance in rat at 10 mg/kg, po; type: ADME, organism-based; set-up: dose 10 mg/kg, route oral
[13] = Cmax in rat at 10 mg/kg, po; type: ADME, organism-based; set-up: dose 10 mg/kg, route oral; details: in vivo
[14] = Cmax in rat at 2 mg/kg, po; type: ADME, organism-based; set-up: dose 2 mg/kg, route oral; details: in vivo
[15] = target: Cannabinoid receptor 1 (Homo sapiens, UniProt P21554); test: Displacement of [3H]CP-55940 from human CB1 receptor expressed in CHO cells; type: cell-based
Chain of Cannabinoid receptor 1 (P21554 whole entry): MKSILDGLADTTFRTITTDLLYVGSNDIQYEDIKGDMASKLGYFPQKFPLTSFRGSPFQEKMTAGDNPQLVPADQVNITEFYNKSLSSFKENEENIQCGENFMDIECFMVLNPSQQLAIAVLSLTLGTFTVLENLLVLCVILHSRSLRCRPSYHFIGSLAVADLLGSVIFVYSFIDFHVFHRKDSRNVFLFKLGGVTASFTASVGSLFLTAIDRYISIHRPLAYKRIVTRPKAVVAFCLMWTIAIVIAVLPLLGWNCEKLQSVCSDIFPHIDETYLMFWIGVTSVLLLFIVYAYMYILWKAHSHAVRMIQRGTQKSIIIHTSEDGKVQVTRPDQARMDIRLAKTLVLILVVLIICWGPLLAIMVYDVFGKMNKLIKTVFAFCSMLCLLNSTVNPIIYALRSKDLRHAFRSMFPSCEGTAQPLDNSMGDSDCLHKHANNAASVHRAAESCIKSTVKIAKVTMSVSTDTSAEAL

[16] = Half life in human plasma; type: ADME, organism-based
[17] = target: Substance-P receptor (Homo sapiens, UniProt P25103); test: Inhibition of NK1 receptor
Chain of Substance-P receptor (P25103 whole entry): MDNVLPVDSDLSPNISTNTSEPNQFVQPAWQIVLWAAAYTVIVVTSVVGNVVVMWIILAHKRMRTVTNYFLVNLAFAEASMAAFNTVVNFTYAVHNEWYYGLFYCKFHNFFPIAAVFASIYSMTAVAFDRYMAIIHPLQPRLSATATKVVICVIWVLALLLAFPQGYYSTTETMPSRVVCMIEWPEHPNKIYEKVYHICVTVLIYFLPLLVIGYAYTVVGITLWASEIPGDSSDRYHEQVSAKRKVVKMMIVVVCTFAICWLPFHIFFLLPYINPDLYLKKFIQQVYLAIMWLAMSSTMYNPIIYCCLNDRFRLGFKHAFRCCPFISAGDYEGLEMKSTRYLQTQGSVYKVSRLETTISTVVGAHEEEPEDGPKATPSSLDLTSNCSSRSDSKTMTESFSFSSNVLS

[18] = test system: Liver microsomes; test: Metabolic stability in human liver microsomes assessed as covalent protein binding per mg of protein; type: ADME, Microsome
[19] = target: T2, Prostaglandin D2 receptor (Homo sapiens, UniProt Q13258)
T2 sequence (Q13258 whole entry): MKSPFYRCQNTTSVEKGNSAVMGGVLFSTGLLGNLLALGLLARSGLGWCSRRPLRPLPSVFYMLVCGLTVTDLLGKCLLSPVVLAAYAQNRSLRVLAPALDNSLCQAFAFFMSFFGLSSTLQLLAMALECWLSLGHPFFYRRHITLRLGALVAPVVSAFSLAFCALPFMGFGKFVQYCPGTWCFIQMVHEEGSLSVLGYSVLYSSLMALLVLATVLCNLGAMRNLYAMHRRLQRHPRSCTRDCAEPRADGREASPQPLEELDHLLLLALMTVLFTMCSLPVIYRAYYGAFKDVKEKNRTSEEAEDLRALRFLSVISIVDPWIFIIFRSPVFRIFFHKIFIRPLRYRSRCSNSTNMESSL

N[C@@H](CC(=O)N1CCn2c(nnc2C(F)(F)F)C1)Cc1cc(F)ccc1F
CL/F [1]: 2.58 L/h/kg | half-life [2]: 1.6 h

N=C(N)c1ccc([C@H]2C3C(=O)N(Cc4cccc(F)c4)C(=O)C3C3CCCN32)cc1 (some centres not stated)
Ki [3]: 360 nM

O=c1[nH]nc(CN2CCO[C@H](OCc3cc(C(F)(F)F)cc(C(F)(F)F)c3)[C@@H]2c2ccccc2)[nH]1
ED50 [4]: 2.88 mg/kg | ID90 [5]: 5.4 mg/kg

Oc1cccc(F)c1
pKa [6]: 9.29

N[C@@H](CC(=O)N1CCn2cnnc2C1)Cc1cc(F)c(F)cc1F
CL/F [1]: 2.4 L/h/kg | half-life [2]: 1 h

Fc1ccc2cccnc2c1
pKa [6]: 4.04

Oc1ccccc1F
pKa [6]: 8.73

Fc1ccc2ncccc2c1
pKa [6]: 4

O=C(O)c1cccc(C(F)(F)F)c1
pKa [6]: 3.79

O=C(O)c1cccc(F)c1
pKa [6]: 3.87

CCc1nnc2n1CCN(C(=O)C[C@H](N)Cc1cc(F)c(F)cc1F)C2
CL/F [1]: 4.2 L/h/kg | half-life [2]: 1.7 h

N#CCNC(=O)C1(N[C@@H](c2ccc(-c3ccc(N4CCNCC4)cc3)cc2)C(F)(F)F)CCCCC1
IC50 [7]: 5 nM

O=C(O)c1ccccc1F
pKa [6]: 3.27

CC(C)C[C@H](N[C@@H](c1ccc(-c2ccc(N3CCNCC3)cc2)cc1)C(F)(F)F)C(=O)NCC#N
IC50 [7]: ≤ 0.005 nM

Nc1ccc(F)cc1
pKa [6]: 4.65

CS(=O)(=O)c1cc(F)cc2c3c(n(Cc4ccc(Cl)cc4)c12)C(CC(=O)O)CC3 (stereo not drawn) [DIASTEREOMER 2]
concentration [8]: 103 µM | remaining at 2 h [9]: 32% | bioavailability [10]: 79% | half-life [11]: 7 h | CL/F [12]: 0.144 L/h/kg | Cmax [13]: 39 µM

N[C@@H](CC(=O)N1CCn2c(nnc2C(F)(F)F)C1)Cc1cc(F)c(F)cc1F [SITAGLIPTIN]
CL/F [1]: 3.6 L/h/kg | half-life [2]: 1.7 h

C[C@H](NC(=O)C(C)(C)Oc1ccc(C(F)(F)F)cn1)[C@@H](Cc1ccc(Cl)cc1)c1ccccc1
Cmax [14]: 1.2 µM | CL/F [1]: 2.1 L/h/kg | IC50 [15]: 0.54 nM | bioavailability [10]: 100% | half-life [2]: 2.2 h

Nc1cccc(C(F)(F)F)c1
pKa [6]: 3.49

Fc1cccc2cccnc12
pKa [6]: 3.1

Cc1nnn[nH]1
pKa [6]: 4.9

C[C@H](NC(=O)C(C)(C)Oc1ccc(C(F)(F)F)cn1)[C@@H](Cc1ccc(Cl)cc1)c1cccc(C#N)c1 [TARANABANT]
Cmax [14]: 0.49 µM | CL/F [1]: 1.98 L/h/kg | half-life [2]: 2.7 h

N[C@@H](CC(=O)N1CCn2c(nnc2C(F)(F)F)C1)Cc1ccc(F)c(F)c1
CL/F [1]: 3.06 L/h/kg | half-life [2]: 1.8 h

O=C(O)C(F)F
pKa [6]: 1.24

C[C@H](NC(=O)C(C)(C)Oc1ccccc1)[C@@H](Cc1ccc(Cl)cc1)c1ccccc1
Cmax [14]: 0.18 µM | CL/F [1]: 1.98 L/h/kg | bioavailability [10]: 9% | half-life [2]: 2.8 h

CC(C)C[C@H](NC(=O)c1ccc(-c2ccc(N3CCNCC3)cc2)cc1)C(=O)NCC#N
IC50 [7]: 0.015 nM

N#CCNC(=O)C1(NC(=O)c2ccc(-c3ccc(N4CCNCC4)cc3)cc2)CCCCC1
IC50 [7]: 0.4 nM

Oc1cccc(C(F)(F)F)c1
pKa [6]: 8.9

O=C(O)c1ccc(F)cc1
pKa [6]: 4.14

Cc1ccc(-c2cc(C(F)(F)F)nn2-c2ccc(S(N)(=O)=O)cc2)cc1 [CELECOXIB]
half-life [16]: 11.2 h

Fc1cnc2ccccc2c1
pKa [6]: 2.36

O=c1[nH]nc(CN2CCO[C@H](OCc3cc(C(F)(F)F)cc(C(F)(F)F)c3)[C@@H]2c2ccc(F)cc2)[nH]1
ED50 [4]: 1.24 mg/kg | ID90 [5]: 2.3 mg/kg

C[C@@H](O[C@H]1OCCN(Cc2n[nH]c(=O)[nH]2)[C@H]1c1ccccc1)c1cc(C(F)(F)F)cc(C(F)(F)F)c1
ED50 [4]: 1.11 mg/kg | IC50 [17]: 0.09 nM | ID90 [5]: 2.3 mg/kg

CC(=O)c1cc(F)cc2c3c(n(Cc4ccc(Cl)cc4)c12)C(CC(=O)O)CC3 (configuration not stated)
concentration [8]: 81 µM | remaining at 2 h [9]: 35% | Activity [18]: 46 pmol/h | Ki [19]: 1.1 nM | bioavailability [10]: 52% | half-life [11]: 4 h | CL/F [12]: 0.114 L/h/kg | Cmax [13]: 21 µM

Oc1ccc(F)cc1
pKa [6]: 9.89

C[C@H](NC(=O)C(C)(C)Oc1cc(F)cc(F)c1)[C@@H](Cc1ccc(Cl)cc1)c1ccccc1
Cmax [14]: 0.3 µM | CL/F [1]: 2.1 L/h/kg | IC50 [15]: 1.47 nM | half-life [2]: 2.4 h

N[C@@H](CC(=O)N1CCn2c(nnc2C(F)(F)C(F)(F)F)C1)Cc1cc(F)c(F)cc1F
CL/F [1]: 3.48 L/h/kg | half-life [2]: 2.3 h

N=C(N)c1ccc([C@H]2C3C(=O)N(Cc4ccccc4F)C(=O)C3C3CCCN32)cc1 (some centres not stated)
Ki [3]: 500 nM

C[C@H](NC(=O)C(C)(C)Oc1ccccn1)[C@@H](Cc1ccc(Cl)cc1)c1ccccc1
Cmax [14]: 0.44 µM | CL/F [1]: 1.5 L/h/kg | bioavailability [10]: 29% | half-life [2]: 2.2 h

Fc1cccnc1
pKa [6]: 2.97

Fc1ccccn1
pKa [6]: -0.44

FC(F)(F)c1nnn[nH]1
pKa [6]: 1.7

C[C@@H](O[C@H]1OCCN(Cc2n[nH]c(=O)[nH]2)[C@H]1c1ccc(F)cc1)c1cc(C(F)(F)F)cc(C(F)(F)F)c1 [APREPITANT]
ED50 [4]: 0.33 mg/kg | ID90 [5]: 1.8 mg/kg

OCC(F)(F)F [TRIFLUOROETHANOL]
pKa [6]: 12.4

CC(=O)c1cc(S(C)(=O)=O)cc2c3c(n(Cc4ccc(Cl)cc4)c12)[C@@H](CC(=O)O)CC3
concentration [8]: 1100 µM | remaining at 2 h [9]: 93% | Activity [18]: 18 pmol/h | bioavailability [10]: 100% | half-life [11]: 1.4 h | CL/F [12]: 0.84 L/h/kg

Nc1ccccc1F
pKa [6]: 3.2

O=C(O)CC(F)(F)F
pKa [6]: 3.06

Fc1cccc2ncccc12
pKa [6]: 3.68

Nc1ccc(C(F)(F)F)cc1
pKa [6]: 2.57
